# Several values for one entry are separate records, joined by “and”; a condition that tells them apart may be missing. Equal entries are not always repeated. Where two headings read alike, the source gives them in different places.
# What was measured:
# [1] = system: E. faecalis; assay: MIC (microbroth dilution); format: cell-based, Enterococcus faecalis
# Experimental: (§1) All bacteria were maintained on tryptic soy agar (TSA), except Streptococcus spp., which were maintained on Columbia agar plates containing 5% horse blood. […] Bacteria were grown to stationary phase in liquid culture overnight, with shaking at 200 rpm, before being back diluted to the relevant starting concentration for each assay below. MICs were measured by the microbroth dilution method. […] Absorbance at OD600 was read on a CLARIOstar spectrophotometer (BMG Labtech) and the MIC was defined as the minimum concentration of compound where no visible growth was detected. […] MICs were also performed in the presence of the outer membrane permeator, polymyxin b nonapeptide (PMBN) following the same MIC method but with the following variation. The 2-fold dilution series of compound was prepared as above, then 50 μL of PMBN at a final concentration of 30 μg/mL was added to relevant wells, while 50 μL/well of blank media was added to the remaining wells. Bacteria were then added at 50 μL/well for a starting concentration as above. […] The MICs were read and defined as above. All animal procedures were performed by the contract research organization Pharmacology Discovery Services Taiwan in accordance with the Guide for the Care and Use of Laboratory Animals. The procedures were approved by the Institutional Ethics Committee of Pharmacology Discovery Services Taiwan, Ltd. (approval no. AB127662), in compliance with animal welfare legislation in Taiwan.
# [2] = system: E. faecium; assay: MIC (microbroth dilution); format: cell-based, Enterococcus faecium
# Experimental: (§2) All bacteria were maintained on tryptic soy agar (TSA), except Streptococcus spp., which were maintained on Columbia agar plates containing 5% horse blood. All bacterial assays were carried out in tryptic soy broth (TSB), except for Streptococcus spp. which were grown in cation-adjusted Mueller Hinton broth containing 2.5% lysed horse blood. Bacteria were grown to stationary phase in liquid culture overnight, with shaking at 200 rpm, before being back diluted to the relevant starting concentration for each assay below. MICs were measured by the microbroth dilution method. […] Absorbance at OD600 was read on a CLARIOstar spectrophotometer (BMG Labtech) and the MIC was defined as the minimum concentration of compound where no visible growth was detected. The compounds were prepared as a DMSO stock and equivalent concentrations of DMSO had no effect on bacterial growth. MICs were also performed in the presence of the outer membrane permeator, polymyxin b nonapeptide (PMBN) following the same MIC method but with the following variation. The 2-fold dilution series of compound was prepared as above, then 50 μL of PMBN at a final concentration of 30 μg/mL was added to relevant wells, while 50 μL/well of blank media was added to the remaining wells. Bacteria were then added at 50 μL/well for a starting concentration as above. Thirty μg/mL of PMBN had no effect on bacterial growth. The MICs were read and defined as above. All animal procedures were performed by the contract research organization Pharmacology Discovery Services Taiwan in accordance with the Guide for the Care and Use of Laboratory Animals. The procedures were approved by the Institutional Ethics Committee of Pharmacology Discovery Services Taiwan, Ltd. (approval no. AB127662), in compliance with animal welfare legislation in Taiwan.
# [3] = system: S. epidermidis; assay: MIC (microbroth dilution); format: cell-based, Staphylococcus epidermidis; conditions: SE378
# Experimental: as §1
# [4] = system: S. haemolyticus; assay: MIC (microbroth dilution); format: cell-based, Staphylococcus haemolyticus; conditions: SH324
# Experimental: as §2
# [5] = system: Acinetobacter baumannii; assay: MIC (microbroth dilution); format: cell-based
# Experimental: as §2
# [6] = system: Pseudomonas aeruginosa; assay: MIC (microbroth dilution); format: cell-based
# Experimental: as §2
# [7] = system: K. pneumoniae; assay: MIC (microbroth dilution); format: cell-based, Klebsiella pneumoniae
# Experimental: as §1
# [8] = target: T1, GyrA S84L mutant DNA gyrase (Staphylococcus aureus, UniProt P0A0K8+P20831, S84L); assay: DNA gyrase supercoiling inhibition assay; format: biochemical, S. aureus; conditions: S84L mutant enzyme; read-out: IC50 (converted)
# T1 construct: purchased Inspiralis Ltd. (Norwich, UK)
# Experimental: (§3) Gyrase inhibition was determined through biochemical assay kits from Inspiralis Ltd. (Norwich, UK), according to manufacturer’s instructions, and as described previously. Briefly, 1U of enzyme was incubated with 0.5 μg of relaxed […] DNA in the presence of compound in 1% DMSO for 30 min at 37 °C. A control reaction contained no compound but still contained 1% DMSO. The reactions were stopped through Stop Buffer addition and the DNA separated through addition of chloroform/iso-amyl alcohol (24;1). Samples were run on a 1% agarose gel at 75 V for 2 h, which was then stained with 1 μg/mL ethidium bromide and visualized using a NuGenius gel imager (Syngene). The intensity of the supercoiled DNA band was quantified using Syngene software, and the inhibition of the supercoiling of the DNA by the compounds was calculated.
# [9] = target: T2, WT DNA gyrase (Staphylococcus aureus, UniProt P0A0K8+P20831); assay: DNA gyrase supercoiling inhibition assay; format: biochemical, S. aureus; conditions: WT enzyme; read-out: IC50 (converted)
# T2 construct: purchased Inspiralis Ltd. (Norwich, UK)
# Experimental: as §3
# [10] = system: S. aureus NCTC 13616; assay: Time-kill assay; format: cell-based; conditions: 4x MIC, 24 hours
# Experimental: Time-kill assays were performed as defined previously.
# [11] = system: S. aureus; assay: Serial passaging, MIC of adapted strains; format: cell-based
# Experimental: MICs were performed on the first and 10th passage.
# [12] = Kinetic aqueous solubility; format: physicochemical; conditions: phosphate-buffered saline with 2% DMSO, pH 7.4, aqueous buffer, kinetic from dmso stock
# Experimental: Kinetic aqueous solubility was determined using a standard LC-UV/MS-based assay. Test compounds were prepared from 10 mM DMSO stock solutions and diluted to a nominal concentration of 200 μM in phosphate-buffered saline (PBS, pH 7.4) containing 2% DMSO. Parallel dilutions in DMSO were used as reference standards. Samples were equilibrated at room temperature for 2 h with shaking, then filtered, and the filtrates were analyzed by LC-UV with mass spectrometric confirmation of the analyte peak. Solubility was determined by comparing the UV peak area of the PBS filtrate with those of the DMSO reference standards. The effective range of the assay was 10–200 μM.
# [13] = Plasma protein binding (RED); format: in vitro ADME; conditions: pH 7.4
# Experimental: Plasma protein binding was measured using a Rapid Equilibrium Dialysis (RED) assay. Test compounds and control compounds were added to plasma at 10 μM and dialyzed against phosphate-buffered saline (PBS, pH 7.4) for 4 h at 37 °C. […] The percentage of drug bound to plasma proteins was calculated by comparing the analyte response in the plasma compartment with that in the buffer compartment.
# [14] = system: NorA overexpressing strain NCTC 13616; assay: Reserpine growth (efflux inhibition) assay; conditions: for AUC of growth curve: biological replicates 1-3, listed as ML-77-005
# Experimental: Statistical analyses were performed with GraphPad Prism V9.5.0. […] Unpaired t tests were used when comparing two samples in the gyrase assays.
compound,measurement,setting,value
"O=C(O)c1cn(C2CC2)c2cc(N3CCN(Cc4cccc5ccccc45)CC3)c(F)cc2c1=O [Compound 8, 1-Cyclopropyl-6-fluoro-7-(4-(naphthalen-1-ylmethyl)piperazin-1-yl)-4-oxo-1,4-dihydroquinoline-3-carboxylic acid]",MIC,[1]; EF602,2 µg/mL
same,MIC,"[1]; Enterococcus faecalis, NCTC775, NCTC 775, read-out: MIC",2 µg/mL
same,MIC,"[1]; Enterococcus faecalis, NCTC12201, NCTC 12201, read-out: MIC",0.125 µg/mL
same,MIC,"[1]; Enterococcus faecalis, NCTC12204, NCTC 12204, read-out: MIC",2 µg/mL
same,MIC,[1]; NCTC 775,2 µg/mL
same,MIC,[1]; NCTC 12201,0.5 µg/mL
same,MIC,[2]; EF205,2 µg/mL
same,MIC,[2]; NCTC 12204,2 µg/mL
same,MIC,[3],0.25 to 2 µg/mL
same,MIC,[4],4 µg/mL
same,MIC,"[5]; ATCC 17978, +PMBN",0.125 µg/mL
same,MIC,"[5]; AYE, +PMBN",32 µg/mL
same,MIC,"[5]; Acinetobacter baumannii, ATCC17978, ATCC 17978, read-out: MIC",4 µg/mL
same,MIC,"[5]; Acinetobacter baumannii, BAA1710, BAA-1710 (AYE), read-out: MIC",> 128 µg/mL
same,MIC,[6]; NCTC 13437,128 µg/mL
same,MIC,"[6]; NCTC 13437, +PMBN",32 µg/mL
same,MIC,"[6]; PAO1, + PMBN",0.125 µg/mL
same,MIC,"[6]; Pseudomonas aeruginosa, PAO1, read-out: MIC",> 128 µg/mL
same,MIC,"[7]; Klebsiella pneumoniae, M6, read-out: MIC",32 to 64 µg/mL
same,MIC,"[7]; Klebsiella pneumoniae, NCTC13368",> 128 µg/mL
same,MIC,"[7]; M6, +PMBN, in µg/mL",0.5
same,MIC,"[7]; NCTC 13368, +PMBN, in µg/mL",1-2
same,IC50,[8],94.9 µM
same,IC50,[9],> 271 µM
same,time-kill profile,[10],comparable bacteriostatic profiles
same,MIC,[11]; ATCC 9144 4x (passaged with Compound 8),2 µg/mL
same,MIC,[11]; ATCC 9144 WT,0.5 µg/mL
same,MIC,[11]; NCTC 13616 4x (passaged with Compound 8),4 µg/mL
same,MIC,[11]; NCTC 13616 WT,2 µg/mL
same,solubility at 2 h,[12],< 5 µM
same,"fraction unbound at 4 h, 10 μM",[13],< 0.01
same,AUC of growth curve,[14]; 0.25 MIC + R (reserpine),3.096 and 3.206 and 1.480
same,AUC of growth curve,[14]; 0.25 MIC,3.117 and 3.088 and 3.115
same,AUC of growth curve,[14]; 0.5 MIC + R (reserpine),3.021 and 2.572 and 0.9525
same,AUC of growth curve,[14]; 0.5 MIC,1.068 and 2.766 and 2.838
same,efflux liability in reserpine assay,[14]; 0.5x MIC with vs without reserpine,not a substrate of NorA

# Source: publication PMC13266999, “Designing Antibiotics with Inherent Resistance to Efflux as a Strategy to Revive Discovery against Multidrug-Resistant Pathogens” (Journal of Medicinal Chemistry, 2026)
